Data taken from US20240018119A1, “CARBOXAMIDE DERIVATIVE AND PHARMACEUTICAL COMPOSITION COMPRISING SAME AS ACTIVE INGREDIENT FOR PREVENTING OR TREATING MENTAL ILLNESS” (DAEGU-GYEONGBUK MEDICAL INNOVATION FOUNDATION, priority 2020, published 2024).

Columns and labels:
serotonin transporter = target: T1, serotonin transporter (Homo sapiens, UniProt P31645); experiment: Serotonin reuptake inhibition in transporter-transfected HEK-293 cells ([3H]-5-HT); assay type: cell-based; conditions: for Triple reuptake inhibition (Ratio %) SERT: compound 1 μM, [3H]-5-HT, relative to control without compound (100%), lower = more inhibition; for IC50: concentration at which Ratio % is 50%, 6 concentrations 1 nM to 1 μM, read-out: Triple reuptake inhibition (IC50, μM) SERT
T1 construct: expressed in transfected cells; host or cells: HEK-293
T1 sequence (P31645 whole entry): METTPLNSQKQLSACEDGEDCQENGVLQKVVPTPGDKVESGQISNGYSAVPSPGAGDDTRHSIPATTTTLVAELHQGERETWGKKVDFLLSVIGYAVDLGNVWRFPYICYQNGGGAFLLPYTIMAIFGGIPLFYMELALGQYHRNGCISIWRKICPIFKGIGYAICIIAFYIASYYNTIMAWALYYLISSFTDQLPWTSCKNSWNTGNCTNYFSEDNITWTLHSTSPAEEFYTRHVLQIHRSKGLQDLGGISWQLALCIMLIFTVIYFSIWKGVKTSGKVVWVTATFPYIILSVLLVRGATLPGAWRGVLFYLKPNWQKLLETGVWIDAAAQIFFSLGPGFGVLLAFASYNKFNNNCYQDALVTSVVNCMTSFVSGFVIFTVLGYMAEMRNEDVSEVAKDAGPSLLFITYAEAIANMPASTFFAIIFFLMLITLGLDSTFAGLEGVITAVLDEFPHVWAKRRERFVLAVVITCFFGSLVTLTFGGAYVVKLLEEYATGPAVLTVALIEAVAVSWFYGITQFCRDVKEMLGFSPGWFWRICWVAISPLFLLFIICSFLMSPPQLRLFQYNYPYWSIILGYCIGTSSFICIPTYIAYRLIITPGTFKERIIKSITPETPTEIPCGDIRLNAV

[1] = target: T2, norepinephrine transporter (Homo sapiens, UniProt P23975); experiment: Norepinephrine reuptake inhibition in transporter-transfected HEK-293 cells ([3H]-NE); assay type: cell-based; conditions: for Triple reuptake inhibition (Ratio %) NET: compound 1 μM, [3H]-NE, relative to control without compound (100%), lower = more inhibition; for IC50: concentration at which Ratio % is 50%, 6 concentrations 1 nM to 1 μM, read-out: Triple reuptake inhibition (IC50, μM) NET
T2 construct: expressed in transfected cells; host or cells: HEK-293
T2 sequence (P23975 whole entry, species assumed): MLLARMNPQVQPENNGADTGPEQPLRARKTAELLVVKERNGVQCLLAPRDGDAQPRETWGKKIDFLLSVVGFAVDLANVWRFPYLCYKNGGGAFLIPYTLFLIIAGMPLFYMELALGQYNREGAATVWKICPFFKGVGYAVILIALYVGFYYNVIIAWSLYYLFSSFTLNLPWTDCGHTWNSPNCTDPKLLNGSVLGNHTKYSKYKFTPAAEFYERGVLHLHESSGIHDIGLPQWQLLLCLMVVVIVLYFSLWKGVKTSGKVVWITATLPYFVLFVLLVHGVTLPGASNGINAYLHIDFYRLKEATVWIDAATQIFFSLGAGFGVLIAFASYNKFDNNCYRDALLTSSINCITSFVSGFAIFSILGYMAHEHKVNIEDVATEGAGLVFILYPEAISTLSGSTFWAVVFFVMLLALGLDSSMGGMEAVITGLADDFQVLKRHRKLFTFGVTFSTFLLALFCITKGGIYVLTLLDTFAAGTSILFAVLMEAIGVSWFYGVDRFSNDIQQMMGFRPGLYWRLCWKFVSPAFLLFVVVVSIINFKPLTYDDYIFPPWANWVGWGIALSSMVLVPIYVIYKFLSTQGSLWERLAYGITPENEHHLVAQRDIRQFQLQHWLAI

dopamine transporter = target: T3, dopamine transporter (Homo sapiens, UniProt Q01959); experiment: Dopamine reuptake inhibition in transporter-transfected HEK-293 cells ([3H]-DA); assay type: cell-based; conditions: for Triple reuptake inhibition (Ratio %) DAT: compound 1 μM, 20-30 nM [3H]-DA, relative to control without compound (100%), lower = more inhibition; for IC50: concentration at which Ratio % is 50%, 6 concentrations 1 nM to 1 μM, read-out: Triple reuptake inhibition (IC50, μM) DAT
T3 construct: expressed in transfected cells; host or cells: HEK-293
T3 sequence (Q01959 whole entry): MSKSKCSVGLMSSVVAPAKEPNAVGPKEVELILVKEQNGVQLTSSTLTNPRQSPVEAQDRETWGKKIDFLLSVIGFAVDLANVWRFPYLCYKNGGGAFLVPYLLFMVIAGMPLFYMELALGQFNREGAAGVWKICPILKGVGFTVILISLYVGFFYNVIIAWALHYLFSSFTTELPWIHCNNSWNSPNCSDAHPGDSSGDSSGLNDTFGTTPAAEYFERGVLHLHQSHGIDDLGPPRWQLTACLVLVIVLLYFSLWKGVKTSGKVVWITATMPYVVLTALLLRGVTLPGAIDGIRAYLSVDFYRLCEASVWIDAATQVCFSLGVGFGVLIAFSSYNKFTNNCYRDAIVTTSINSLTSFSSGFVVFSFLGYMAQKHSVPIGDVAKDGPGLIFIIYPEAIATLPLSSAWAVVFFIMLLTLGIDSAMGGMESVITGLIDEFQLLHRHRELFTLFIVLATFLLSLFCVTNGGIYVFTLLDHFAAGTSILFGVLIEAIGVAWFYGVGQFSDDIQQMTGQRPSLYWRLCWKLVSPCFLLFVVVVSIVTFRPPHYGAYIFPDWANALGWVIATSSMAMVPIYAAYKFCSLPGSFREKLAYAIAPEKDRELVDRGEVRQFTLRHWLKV
In short: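 HEK-293 cells transfected with human DAT cDNA; compound preincubated 15 min at 37 °C in uptake buffer, then buffer containing 20-30 nM [3H]-DA added for 5 min at 37 °C. After ice-cold washes and SDS lysis, radioactivity expressed as % of untreated control; IC50 from six concentrations (1 nM–1 μM).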

male ICR mice [2] = experiment: Hyperactivity inhibitory effect, open field test (EthoVision) in MK801-treated mice; assay type: in vivo; conditions: for distance moved: vehicle about 7000 cm; for movement duration: vehicle about 880 s
Experimental: In order to evaluate the hyperactivity inhibitory effect of the compounds of Example 35 and Example 66 according to the present invention or Comparative Example 1, an experiment was performed as follows, and the results are shown in FIG. 1. An open field test is an experimental method utilized for searching for excess and decline in motor function, calmness, excitement, avoidance degree and toxicity.
The observation of the hyperactivity and behavior analysis of animals were conducted using an EthoVisiorn System (Noldus IT b.v., Netherlands) that is a type of an open field test. The animals used for the experiment were male ICR mice of 4 weeks old. To induce hyperactivity, animal models intraperitoneally administered with 0.15 mg/kg of MK801 (drug name: dizocilpine) were used, and the compounds of Example 35, example 66 or Comparative Example 1 was intraperitoneally administered by 5 mg/kg, 30 minutes ago the administration of MK801. Male ICP mice administered with 10% DMSO and 10% Tween-80 as the solvents dissolving a drug were considered a vehicle, and male ICR mice administered with MK801 […] with the Example Compound or Comparative Compound were considered a positive control. After that, in the center of a test box (40×40×30 cm) manufactured using black acryl, the mice under test were put and allowed to fit for 15 minutes, and behavior patterns were observed, recorded and analyzed for 15 minutes. Comparative analysis was conducted by measuring distance moved and movement duration.

male ICR mice [3] = experiment: Evaluation on causing sleep disorder, pentobarbital sodium-induced sleep in mice; assay type: in vivo; conditions: then pentobarbital sodium 42 mg/kg i.p.; for sleep onset time: vehicle about 225 seconds; for sleep duration: vehicle about 2100 seconds
Experimental: In order to evaluate the causing of sleep disorder or not as the side effect of the compound of Example 35, Example 66 according to the present invention or Comparative Example 1, an experiment was performed as follows, and the results are shown in FIG. 2. Pentobarbital sodium is a drug inducing sleep, and by observing the behavior of sleep-induced animals using the drug, the causing of sleep disorder or not can be evaluated. In addition, caffeine is well-known as a drug causing sleep disorder, and diazepam is well-known as a sleeping pill having sleep retention effect.
As experimental animals, male ICR mice of 3 weeks old were prepared and, 8 mice per group were prepared. A vehicle taking only water, groups intraperitoneally administered once a day for 5 days with 10 mg/kg of caffeine, 2 mg/kg of diazepam, 10 mg/kg of Comparative Example 1, and 10 mg/kg of Example 35 and 10 mg/kg of Example 66, were prepared. […], 42 mg/kg of pentobarbital sodium was intraperitoneally administered to the mice of each group to Induce sleep.
After treatment with pentobarbital sodium, if a mouse was turned upside down showing Its belly, it was considered sleep, and if a mouse changed posture while showing its back, it was considered to wake up completely. Sleep onset time and sleep duration were confirmed.

[4] = 5 mg/kg intraperitoneally 30 minutes before MK801 0.15 mg/kg i.p.
[5] = 5 mg/kg intraperitoneally 30 minutes before MK801 0.15 mg/kg i.p., observed 15 minutes, MK801 only about 14000 cm
[6] = 5 mg/kg intraperitoneally 30 minutes before MK801 0.15 mg/kg i.p., MK801 only about 1070 s
[7] = 10 mg/kg intraperitoneally once a day for 5 days
[8] = 2 mg/kg intraperitoneally once a day for 5 days
[9] = positive control treated with only MK801 0.15 mg/kg i.p.

SMILES | Triple reuptake inhibition (Ratio %) SERT (serotonin transporter) [%] | IC50 (serotonin transporter) [µM] | Triple reuptake inhibition (Ratio %) NET [1] [%] | IC50 [1] [µM] | Triple reuptake inhibition (Ratio %) DAT (dopamine transporter) [%] | IC50 (dopamine transporter) [µM] | also measured
COc1cc2cc(C(=O)NCCN3CCC(Cc4ccccc4)CC3)[nH]c2cc1OC [Example 35, N-(2-(4-benzylpiperidin-1-yl)ethyl)-5,6-dimethoxy-1H-indol-2-carboxamide] | 36.24 | 0.415 | 16.10 | 0.386 | 7.77 | 0.248 | hyperactivity of the mice induced with MK801 (male ICR mice [2]; [4]): significantly inhibited; distance moved (male ICR mice [2]; [5]): about 10000 cm; movement duration (male ICR mice [2]; [6]): about 950 seconds
O=C(NCCN1CCC(Cc2ccccc2)CC1)c1cc2ccccc2[nH]1 [Comparative Example 1, N-(2-(4-benzylpiperidin-1-yl)ethyl)-1H-indol-2-carboxamide, reference compound] | – | 5.35 | – | 0.524 | – | 4.18 | hyperactivity of the mice induced with MK801 (male ICR mice [2]; [4]): not inhibited; distance moved (male ICR mice [2]; [5]): about 13400 cm; movement duration (male ICR mice [2]; [6]): about 1100 seconds; sleep disorder as side effect (male ICR mice [3]; [7]): induced sleep disorder; sleep onset time (male ICR mice [3]; [7]): about 300 seconds; sleep duration (male ICR mice [3]; [7]): about 1100 seconds
CN1C(=O)CN=C(c2ccccc2)c2cc(Cl)ccc21 [diazepam] | – | – | – | – | – | – | sleep onset time (male ICR mice [3]; [8]): about 170 seconds; sleep duration (male ICR mice [3]; [8]): about 2900 seconds
O=C(NCCN1CCC(Cc2ccccc2)CC1)c1cc2cc(O)ccc2[nH]1 [Example 66, N-(2-(4-benzylpiperidin-1-yl)ethyl)-5-hydroxy-1H-Indol-2-carboxamide] | 38.79 | 0.265 | 21.59 | 0.167 | 8.78 | 0.036 | hyperactivity of the mice induced with MK801 (male ICR mice [2]; [4]): significantly inhibited; distance moved (male ICR mice [2]; [5]): about 8600 cm; movement duration (male ICR mice [2]; [6]): about 880 seconds
C[C@]12N[C@H](Cc3ccccc31)c1ccccc12 [MK801, reference compound] | – | – | – | – | – | – | movement duration (male ICR mice [2]; [9]): about 1070 seconds; distance moved (male ICR mice [2]; [9]): about 14000 cm
O=C(NCCN1CCN(Cc2ccccc2)CC1)c1ccc(Cl)c(Cl)c1 [Example 15, N-(2-(4-benzylpiperazin-1-yl)ethyl)-3,4-dichlorobenzamide] | 114.75 | – | 72.94 | – | 85.21 | – | –
COc1cc2cc(C(=O)NCCN3CCC(Cc4ccc(Cl)c(Cl)c4)CC3)[nH]c2cc1OC [Example 48] | 5.27 | 0.123 | 9.75 | 0.398 | 2.88 | 0.028 | –
O=C(NCCN1CCN(Cc2ccccc2)CC1)c1cc2ccccc2[nH]1 [Example 25, N-(2-(4-benzylpiperazin-1-yl)ethyl)-1H-indol-2-carboxamide] | 97.46 | – | 76.45 | – | 76.50 | – | –
O=C(NC1(CN2CCC(Cc3ccccc3)CC2)CC1)c1cc2ccccc2[nH]1 [Example 53, N-(1-((4-benzylpiperidin-1-yl)methyl)cyclopropyl)-1H-indol-2-carboxamide] | 108.82 | – | 69.01 | – | 86.48 | – | –
O=C(NCCN1CCN(c2cccc(Cl)c2Cl)CC1)c1ccc2cc(Br)ccc2c1 [Example 4, 6-bromo-N-(2-(4-(2,3-dichlorophenyl)piperazin-1-yl)ethyl)-2-naphthamide] | 73.53 | – | 121.24 | – | 108.51 | – | –
O=C(NCCn1ccc(-c2ccc(F)cn2)n1)c1ccc2cc(Br)ccc2c1 [Example 8, 6-bromo-N-(2-(3-(5-fluoropyridin-2-yl)-1H-pyrazol-1-yl)ethyl)-2-naphthamide] | 86.83 | – | 95.78 | – | 97.06 | – | –
O=C(NCCN1CCCC(Cc2ccccc2)C1)c1cc2ccccc2[nH]1 (centres unmarked) [Example 38, N-(2-(3-benzylpiperidin-1-yl)ethyl)-1H-indol-2-carboxamide] | 70.46 | – | 70.02 | – | 43.94 | – | –
O=C(NCCNCc1ccc2ccccc2c1)c1cc2ccccc2[nH]1 [Example 54, N-(2-((naphthalen-2-ylmethyl)amino)ethyl)-1H-indol-2-carboxamide] | 84.69 | – | 92.95 | – | 79.32 | – | –
O=C(NCCN1CCN(Cc2ccc(Cl)c(Cl)c2)CC1)c1cc2ccccc2[nH]1 [Example 22, N-(2-(4-(3,4-dichlorobenzyl)piperazin-1-yl)ethyl)-1H-indol-2-carboxamide] | 52.47 | > 10 | 91.21 | – | 63.72 | – | –
O=C(NCCN1CCC(Cc2ccccc2)CC1)c1nc2ccccc2[nH]1 [Example 61, N-(2-(4-benzylpiperidin-1-yl)ethyl)-1H-benzo[d]imidazol-2-carboxamide] | 62.21 | 2.28 | 73.75 | 3.17 | 32.78 | 0.97 | –
